Test results reported in ChEMBL document CHEMBL1140542, “Cryptadines A and B, novel C27N3-type pentacyclic alkaloids from Lycopodium cryptomerinum” (Bioorg Med Chem, 2007).

Target: T1, Acetylcholinesterase (Bos taurus, UniProt P23795)
T1 sequence (P23795 whole entry): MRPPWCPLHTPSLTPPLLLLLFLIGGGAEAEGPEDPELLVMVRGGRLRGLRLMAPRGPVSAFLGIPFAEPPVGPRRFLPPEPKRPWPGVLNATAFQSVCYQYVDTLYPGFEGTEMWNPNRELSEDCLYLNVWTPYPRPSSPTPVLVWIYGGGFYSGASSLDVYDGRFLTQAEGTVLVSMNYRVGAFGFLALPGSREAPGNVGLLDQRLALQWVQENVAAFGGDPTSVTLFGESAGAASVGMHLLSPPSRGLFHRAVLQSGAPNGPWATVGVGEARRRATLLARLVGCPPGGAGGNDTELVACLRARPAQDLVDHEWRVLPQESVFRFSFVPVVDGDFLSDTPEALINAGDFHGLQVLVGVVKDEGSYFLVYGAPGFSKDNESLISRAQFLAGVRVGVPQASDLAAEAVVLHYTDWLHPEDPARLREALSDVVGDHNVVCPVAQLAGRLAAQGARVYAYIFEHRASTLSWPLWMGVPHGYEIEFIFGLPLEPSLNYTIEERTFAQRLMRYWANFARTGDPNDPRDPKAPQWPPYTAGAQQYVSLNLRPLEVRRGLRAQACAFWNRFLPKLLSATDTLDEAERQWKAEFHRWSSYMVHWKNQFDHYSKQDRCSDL
Test: Inhibition of bovine acetylcholinesterase

Row | Structure (SMILES) | IC50 [µM]
1 | CC(=O)N1CCCC2=C(C[C@H]3CCC[C@H](CC4=C5CCCN(C)[C@H]5C[C@@H](C)C4)N3)C[C@H](C)C[C@@H]21 [CRYPTADINE A] | 106
2 | CC(=O)N1CCCC2=C(C[C@H]3CCC[C@H](CC4=C5CCCN(C)[C@H]5C[C@H](C)C4)N3)C[C@H](C)C[C@@H]21 [CRYPTADINE B] | 18.5
